Where two headings read alike, the source gives them in different places.
Molecular target: HIV-1 integrase (Human immunodeficiency virus type 1 group M subtype B, UniProt P04585)
Assay: HIV-1 integrase inhibition assay (radiolabeled duplex substrate corresponding to the U5 end of the HIV LTR)
Format: biochemical
Experimental: For the purpose of Table 1 to 4, the HIV-1 integrase inhibition assay was carried out following a known procedure (Burke, Jr. T. R. et al., J. Med. Chem. 38, 4171-4178 (1995)). A suitable radiolabeled duplex substrate corresponding to the U5 end of the HIV LTR was used.
For the purposes of Table 1 to 4 the HIV-1 integrase inhibition assay was based on a known procedure (Hazuda, D. J. et al., Nucleic Acids Res. 22 1121-1122 (1994)).

[1] = Table 4, compounds of formula I′, read-out: IC50

SMILES | IC50 [nM] | further results
O=C(C=Cc1ccc(OCc2ccc(F)cc2)c(OCc2ccc(F)cc2)c1)NCC(=O)NCCc1cccs1 [Example 98, N-[Nα-(3,4-di-(4-Fluorobenzyloxy)caffeoyl)-glycyl]-2-(2′-thiophenyl)ethylamine] |  | IC50 [1]: > 10000 nM
COc1ccc(NC(=O)[C@H](CCC(=O)NC(c2ccccc2)(c2ccccc2)c2ccccc2)NC(=O)c2cc3ccccc3n2Cc2ccc(F)cc2)cc1O [Example 109, N-[Nα-(N′-(4-Fluorobenzyl)indole-2-carbonyl)-Nδ-trityl-L-glutaminyl]-3-hydroxy-4-methoxyaniline] |  | IC50 [1]: 5300 nM
O=C(NCCCC[C@H](NC(=O)c1cc2cccc(O)c2cc1O)C(=O)NCCc1ccc(O)c(O)c1)c1cc2cccc(O)c2cc1O [Example 66, N-[Nα,Nε-di-(3,5-Dihydroxynaphthyl-2-carbonyl)-L-lysyl]dopamine] | > 5000 | 
COc1ccc(OC)c(C=CC(=O)N[C@@H](COC(C)(C)C)C(=O)NCCc2ccc(O)c(O)c2)c1 [Example 44, N-[Nα-(2,5-Dimethoxycinnamoyl)-O-tert-butyl-L-seryl]dopamine] | > 10000 | 
O=C(NCCCC[C@H](NC(=O)c1ccc(O)c(O)c1)C(=O)O)c1ccc(O)c(O)c1 [Example 3, Nα,Nε-di-(3,4-Dihydroxybenzoyl)-L-lysine] | 14000 | 
Cc1ccc(C(NC(=O)CC[C@H](NC(=O)/C=C/c2ccc(O)c(O)c2)C(=O)NCCc2ccc(O)c(O)c2)(c2ccccc2)c2ccccc2)cc1 [Example 48, N-(Nα-Caffeoyl-Nδ-methyltrityl-L-glutaminyl)dopamine] | 1150 | 
O=C(/C=C/c1ccc(O)c(O)c1)NCCC[C@H](NC(=O)/C=C/c1ccc(O)c(O)c1)C(=O)NCCc1ccc(O)c(O)c1 [Example 11, N-(Nα,Nδ-Dicaffeoyl-L-ornithyl)dopamine] | 870 | 
Cc1ccc(C(NC(=O)CC[C@H](NC(=O)c2cc(O)c3cccc(O)c3n2)C(=O)NCc2ccc(O)c(O)c2)(c2ccccc2)c2ccccc2)cc1 [Example 69, N-[Nα-(4,8-Dihydroxyquinoline-2-carbonyl)-Nδ-methyltrityl-L-glutaminyl]-3,4-dihydroxybenzylamine] | 346 | 
O=C(N[C@@H](Cc1cn(C(c2ccccc2)(c2ccccc2)c2ccccc2)cn1)C(=O)NCc1ccc(O)c(O)c1)c1ccc(O)c(O)c1 [Example 25, N-[Nα-(3,4-Dihydroxybenzoyl)-Nτ-trityl-L-histidinyl]-3,4-dihydroxybenzylamine] | > 1000 | 
O=C(/C=C/c1c[nH]c2ccccc12)N[C@@H](Cc1cn(C(c2ccccc2)(c2ccccc2)c2ccccc2)cn1)C(=O)NCCc1ccc(O)c(O)c1 [Example 86, N-[Nα-(3-(3′-Indole)acryloyl)-Nτ-trityl-L-histidinyl]dopamine] | 2000 | 
COc1ccc(OC)c(NC(=O)[C@H](CCC(N)=O)NC(=O)c2ccc[nH]2)c1 [Example 91, N-(Nα-(Pyrrole-2-carbonyl)-L-glutaminyl]-2,5dimethoxyaniline] | > 10000 | 
O=C(NCCCC[C@H](NC(=O)c1cc2cccc(O)c2cc1O)C(=O)OCc1ccccc1)c1cc2cccc(O)c2cc1O [Example 55, Nα,Nε-di-(3,5-Dihydroxynaphthyl-2-carbonyl)-L-L-lye Benzyl Ester] |  | IC50 (Table 2, compounds of formula III′, read-out: IC50): > 5000 nM
CC(C)(C)OC[C@H](NC(=O)c1cccn1Cc1ccc(F)cc1)C(=O)NCCc1ccc(O)c(O)c1 [Example 93, N-[Nα-(N′-(4-Fluorobenzyl)pyrrole-2-carbonyl)-O-tert-butyl-L-seryl]dopamine] |  | IC50 [1]: > 10000 nM
O=C(C=Cc1ccc(O)c(O)c1)NC(Cc1cn(Cc2ccccc2)cn1)C(=O)NCCc1ccc(O)c(O)c1 [Example 40, N-(Nα-Caffeoyl-Nτ-benzyl-L-histidinyl)dopamine] | 836 | 
O=C(N[C@@H](Cc1cn(C(c2ccccc2)(c2ccccc2)c2ccccc2)cn1)C(=O)NCCc1ccc(O)c(O)c1)c1ccc(O)c([N+](=O)[O-])c1 [Example 17, N-[Nα-(4-Hydroxy-3-nitrobenzoyl)-Nτ-trityl-L-histidinyl]dopamine] | 1600 | 
CC(C)(C)OC(=O)N[C@@H](Cc1cn(-c2ccc([N+](=O)[O-])cc2[N+](=O)[O-])cn1)C(=O)NNC(=O)c1ccccc1O [Example 79, N1-[Nα-tert-Butoxycarbonyl-Nτ-(2,4-dinitrophenyl)-L-histidinyl]-N2-(2-hydroxybenzoyl)-hydrazine] | > 4000 | 
O=C(N[C@@H](Cc1ccc(O)c(O)c1)C(=O)NCCc1ccc(O)c(O)c1)c1ccc(O)c([N+](=O)[O-])c1 [Example 15, N-[Nα-(4-Hydroxy-3-nitrobenzoyl)-L-3,4-dihydroxyphenylalanyl]dopamine] | 433 | 
O=C(N[C@@H](Cc1cn(C(c2ccccc2)(c2ccccc2)c2ccccc2)cn1)C(=O)NCCc1ccc(O)c(O)c1)c1ccc(O)c(O)c1 [Example 14, N-[Nα-(3,4-Dihydroxybenzoyl)-Nτ-trityl-L-histidinyl]dopamine] | 65 | 
O=C(N[C@@H](Cc1ccc(O)cc1)C(=O)NCCc1ccc(O)c(O)c1)c1cc(O)c2cccc(O)c2n1 [Example 58, N-[Nα-(4,8-Dihydroxyquinoline-2-carbonyl)-L-tyrosyl]dopamine] | 1200 | 

SMILES | IC50 [nM] | further results
O=C(NCCCC[C@H](NC(=O)c1cc2cccc(O)c2cc1O)C(=O)NO)c1cc2cccc(O)c2cc1O [Example 56, Nα,Nε-di-(3,5-Dihydroxynaphthyl-2-carbonyl)-L-lysine hydroxylamide] | 5300 | 
O=C(N[C@@H](COCc1ccccc1)C(=O)NCCc1ccc(O)c(O)c1)c1ccc(O)c([N+](=O)[O-])c1 [Example 34, N-[Nα-(4-Hydroxy-3-nitrobenzoyl)-O-benzyl-L-seryl]dopamine] | 1800 | 
O=C(C=Cc1ccc(O)c(O)c1)NC(Cc1cn(C(c2ccccc2)(c2ccccc2)c2ccccc2)cn1)C(=O)NCCc1ccc(O)c(O)c1 [Example 13, N-(Nα-Caffeoyl-Nτ-trityl-L-histidinyl)dopamine] | 369 | 
Cc1ccc(C(NC(=O)CC[C@H](NC(=O)/C=C/c2ccc(O)c(O)c2)C(=O)Nc2nccs2)(c2ccccc2)c2ccccc2)cc1 [Example 90, N-(Nα-Caffeoyl-Nδ-methyltrityl-L-glutaminyl)thiazole-2-amine] | 834 | 
COc1ccc(OC)c(NC(=O)[C@H](CCC(=O)NC(c2ccccc2)(c2ccccc2)c2ccccc2)NC(=O)c2ccc(O)c(O)c2)c1 [Example 83, N-[Nα-(3,4-Dihydroxybenzoyl)-Nδ-trityl-L-glutaminyl]-2,5-dimethoxyaniline] | 2250 | 
COc1ccc(OC)c(NC(=O)[C@H](CCC(=O)NC(c2ccccc2)(c2ccccc2)c2ccccc2)NC(=O)c2cc(O)c3cccc(O)c3n2)c1 [Example 85, N-[Nα-(4,8-Dihydroxyquinoline-2-carbonyl)-Nδ-trityl-L-glutaminyl]-2,5-dimethoxyaniline] | 2600 | 
O=C(/C=C/c1ccc(O)c(O)c1)N[C@@H](Cc1ccc(O)c(O)c1)C(=O)NNC(=O)c1ccccc1O [Example 76, N1-(Nα-Caffeoyl-L-3,4-dihydroxyphenylalanyl)-N2-(2-hydroxybenzoyl)-hydrazine] | 383 | 
O=C(N[C@@H](CO)C(=O)NCCc1ccc(O)c(O)c1)c1cc2ccccc2n1Cc1ccc(F)cc1 [Example 96, N-[Nα-(N′-(4-Fluorobenzyl)indole-2-carbonyl)-L-seryl]dopamine] | > 10000 | 
COc1ccc(NC(=O)[C@H](CCC(=O)NC(c2ccccc2)(c2ccccc2)c2ccccc2)NC(=O)c2cc3cc(F)ccc3[nH]2)cc1O [Example 113, N-[Nα-(5-Fluoroindole-2-carbonyl)-Nδ-trityl-L-glutaminyl]-3-hydroxy-4-methoxyaniline] | 6500 | 
C[C@@H](OCc1ccccc1)[C@H](NC(=O)c1ccc(O)c(O)c1)C(=O)NCCc1ccc(O)c(O)c1 [Example 9, N-[Nα-(3,4-Dihydroxybenzoyl)-O-benzyl-L-threonyl]dopamine] | > 5000 | 
CC(C)(C)OC(=O)CC[C@H](NC(=O)c1cccn1Cc1ccc(F)cc1)C(=O)NCCc1cccs1 [Example 101, N-[Nα-(N′-(4-Fluorobenzyl)pyrrole-2-carbonyl)-Oδ-tert-butyl-L-glutamyl]-2-(2′-thiophenyl)ethylamine] | > 10000 | 
CC(C)(C)OC(=O)C[C@H](NC(=O)c1cc(O)c2cccc(O)c2n1)C(=O)NCCc1ccc(O)c(O)c1 [Example 62, N-[Nα-(4,8-Dihydroxyquinoline-2-carbonyl)-Oγ-ted-butyl-L-aspartyl]dopamine] | > 5000 | 
O=C(NCCCC[C@H](NC(=O)c1c(O)cc(O)cc1O)C(=O)NCCc1ccc(O)c(O)c1)OCc1ccccc1 [Example 37, N-[Nα-(2,4,6-Trihydroxybenzoyl)-Nε-benzyloxycarbonyl-L-lysyl]dopamine] | 1600 | 
O=C(O)CC[C@H](NC(=O)c1cc2ccccc2n1Cc1ccc(F)cc1)C(=O)NCc1ccccc1 [Example 94, N-[Nα-(N′-(4-Fluorobenzyl)indole-2-carbonyl)-L-glutamyl]benzylamine] | 9250 | 
NC(=O)C[C@H](NC(=O)c1cc2cccc(O)c2cc1O)C(=O)NCCc1ccc(O)c(O)c1 [Example 61, N-[Nα-(3,5-Dihydroxynaphthyl-2-carbonyl)-L-asparagyl]dopamine] | > 5000 | 
O=C(/C=C/c1ccc(O)c(O)c1)NCCCC[C@H](NC(=O)/C=C/c1ccc(O)c(O)c1)C(=O)NCCc1ccc(O)c(O)c1 [Example 5, N-(Nα,Nε-Dicaffeoyl-L-lysyl)dopamine] | 510 | 
O=C(N[C@@H](CSC(c1ccccc1)(c1ccccc1)c1ccccc1)C(=O)NCCc1ccc(O)c(O)c1)c1c(O)cccc1F [Example 38, N-[Nα-(2-Fluoro-6-Hydroxybenzoyl)-S-trityl-L-cysteinyl]dopamine] | 1400 | 
O=C(C=Cc1ccc(O)c(O)c1)NC(Cc1cn(C(c2ccccc2)(c2ccccc2)c2ccccc2)cn1)C(=O)NCc1ccc(O)c(O)c1 [Example 31, N-(Nα-Caffeoyl-Nτ-trityl-L-histidinyl)-3,4-dihydroxybenzylamine] | 364 | 
